{
  "source": "paper PMC7101356",
  "about": "“Cross-site and cross-platform variability of automated patch clamp assessments of drug effects on human cardiac currents in recombinant cells” (Scientific Reports, 2020)",
  "key": {"peak hNav1.5": {"molecular_target": "T1, peak hNav1.5 (Homo sapiens, UniProt Q14524)", "T1 construct": "expressed in transfected cells; host or cells: HEK293 or CHO, depending on site", "T1 sequence (Q14524 whole entry)": "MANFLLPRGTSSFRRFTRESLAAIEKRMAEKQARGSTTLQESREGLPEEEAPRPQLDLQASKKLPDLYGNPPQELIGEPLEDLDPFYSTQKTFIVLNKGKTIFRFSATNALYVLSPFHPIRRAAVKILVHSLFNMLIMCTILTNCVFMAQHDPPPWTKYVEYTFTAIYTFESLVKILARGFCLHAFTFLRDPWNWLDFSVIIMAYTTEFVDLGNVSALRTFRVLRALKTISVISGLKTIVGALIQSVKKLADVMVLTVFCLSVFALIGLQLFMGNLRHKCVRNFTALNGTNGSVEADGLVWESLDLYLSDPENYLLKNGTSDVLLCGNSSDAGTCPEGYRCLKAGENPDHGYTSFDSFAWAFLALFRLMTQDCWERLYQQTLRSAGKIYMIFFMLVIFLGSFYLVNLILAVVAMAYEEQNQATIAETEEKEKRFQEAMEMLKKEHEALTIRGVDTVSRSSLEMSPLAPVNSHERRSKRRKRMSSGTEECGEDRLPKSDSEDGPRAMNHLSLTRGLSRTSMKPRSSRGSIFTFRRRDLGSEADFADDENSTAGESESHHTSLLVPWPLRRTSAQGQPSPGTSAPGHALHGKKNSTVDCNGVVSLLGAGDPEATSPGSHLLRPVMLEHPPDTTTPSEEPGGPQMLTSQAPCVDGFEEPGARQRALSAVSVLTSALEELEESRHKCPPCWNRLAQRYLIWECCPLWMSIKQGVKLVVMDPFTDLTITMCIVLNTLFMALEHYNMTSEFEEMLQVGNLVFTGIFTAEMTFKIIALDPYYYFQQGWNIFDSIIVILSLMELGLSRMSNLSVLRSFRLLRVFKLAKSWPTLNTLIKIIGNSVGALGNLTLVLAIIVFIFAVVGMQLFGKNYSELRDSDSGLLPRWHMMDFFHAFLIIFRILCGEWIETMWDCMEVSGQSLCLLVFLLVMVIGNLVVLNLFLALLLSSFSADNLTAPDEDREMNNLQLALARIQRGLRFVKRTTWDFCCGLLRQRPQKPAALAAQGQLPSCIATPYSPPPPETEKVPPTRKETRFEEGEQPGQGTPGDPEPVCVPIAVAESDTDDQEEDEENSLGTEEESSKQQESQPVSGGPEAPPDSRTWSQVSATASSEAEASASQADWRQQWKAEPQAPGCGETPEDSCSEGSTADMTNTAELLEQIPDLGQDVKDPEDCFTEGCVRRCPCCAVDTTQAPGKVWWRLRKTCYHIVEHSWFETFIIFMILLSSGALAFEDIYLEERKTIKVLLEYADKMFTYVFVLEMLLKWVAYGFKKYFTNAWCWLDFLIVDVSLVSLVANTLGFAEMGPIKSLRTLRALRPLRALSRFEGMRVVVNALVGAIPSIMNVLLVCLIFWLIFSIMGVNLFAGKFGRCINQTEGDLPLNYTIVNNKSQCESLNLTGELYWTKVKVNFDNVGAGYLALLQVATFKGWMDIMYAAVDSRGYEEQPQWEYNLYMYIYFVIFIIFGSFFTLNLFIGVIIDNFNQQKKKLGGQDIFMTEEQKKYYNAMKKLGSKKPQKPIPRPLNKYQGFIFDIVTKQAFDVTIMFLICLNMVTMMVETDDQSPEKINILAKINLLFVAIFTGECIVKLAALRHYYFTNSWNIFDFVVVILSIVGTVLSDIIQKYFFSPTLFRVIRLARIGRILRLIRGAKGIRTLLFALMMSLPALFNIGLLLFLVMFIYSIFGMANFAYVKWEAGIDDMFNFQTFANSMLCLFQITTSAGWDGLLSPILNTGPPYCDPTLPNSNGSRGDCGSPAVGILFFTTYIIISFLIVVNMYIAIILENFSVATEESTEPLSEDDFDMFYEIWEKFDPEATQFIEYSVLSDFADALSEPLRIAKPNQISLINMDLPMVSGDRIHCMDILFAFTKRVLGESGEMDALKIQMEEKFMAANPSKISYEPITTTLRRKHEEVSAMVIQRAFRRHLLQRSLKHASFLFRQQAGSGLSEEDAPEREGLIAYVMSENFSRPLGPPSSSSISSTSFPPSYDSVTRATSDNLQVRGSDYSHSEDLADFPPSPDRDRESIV", "experiment": "Automated patch clamp, peak hNav1.5 current block", "assay_type": "cell-based", "protocol": "Peak current was measured during the depolarizing step to −15 mV. Leak current was measured after applying a saturating concentration of a blocker such as lidocaine (2 mM) at the end of each experiment to completely block hNav1.5 current.\n(§1) Concentration-response relationships for each test article were independently investigated, i.e., each cell received only one test article, typically evaluating multiple concentrations in a cumulative fashion (lowest to highest concentrations). However, some platforms tested only one concentration per well. Each concentration response was based on a minimum of four concentrations, with a minimum of three wells used for each concentration. In cases of high variability, more cells per concentration were recorded. Prior to drug addition, cells received an addition of vehicle to measure non-test article-related effects such as addition artifacts. At the end of the experiment, a supramaximal concentration of a known inhibitory reference compound was applied to assess leak current and appropriate responsiveness of the test system.\n(§2) The steady state current at each concentration was used to determine the concentration-response relationships. Mean concentration-response data were fitted to a standard sigmoidal four-parameter logistic equation (GraphPad Prism 7; GraphPad Inc., La Jolla, CA) of the form: Y=Bottom+(Top−Bottom)/(1+10^∧(LogIC50−X)∗HillSlope) where Y is the current inhibition (in % of pre-drug control), X is the logarithm of drug concentration, and IC50 is the drug concentration producing half-maximal current inhibition. Curve fitting was performed using the following constraints: Top = 100%, Bottom = 0%, Hill Slope <2. No curve fitting was performed in cases with an obvious lack of a concentration-dependent current inhibition and/or small effect size (approximately ≤20%)."}, "late hNav1.5": {"molecular_target": "T2, late hNav1.5 (Homo sapiens, UniProt Q14524)", "T2 construct": "expressed in transfected cells; host or cells: HEK293 or CHO, depending on site", "T2 sequence (Q14524 whole entry)": "as above", "experiment": "Automated patch clamp, late hNav1.5 current block (ATX-II activated)", "assay_type": "cell-based", "details": "for IC50: read-out: log IC50, late hNav1.5 inhibition (converted)", "protocol": "However, all external solutions contained 30 nM ATX-II in order to activate late current. Late current was measured at its maximum during the repolarizing ramp.\nas §1, §2"}, "[1]": {"details": "based on CiPA evaluations; cited from earlier work"}, "hCav1.2": {"molecular_target": "hCav1.2 (Homo sapiens, UniProt Q13936)", "experiment": "Automated patch clamp, hCav1.2 current block", "details": "log IC50, half-maximal inhibitory concentration"}, "[2]": {"details": "site_platform s06_p4, 1.00E-05 mol/L"}, "[3]": {"details": "site_platform s06_p4, 3.00E-07 mol/L"}, "[4]": {"details": "site_platform s07_p6, 1.00E-05 mol/L"}, "[5]": {"details": "site_platform s07_p6, 3.00E-07 mol/L"}, "[6]": {"details": "site_platform s13_p2, 1.00E-05 mol/L"}, "[7]": {"details": "site_platform s13_p2, 3.00E-07 mol/L"}, "[8]": {"details": "site_platform s14_p1, 1.00E-05 mol/L"}, "[9]": {"details": "site_platform s14_p1, 3.00E-07 mol/L"}},
  "note": "Where two headings read alike, the source gives them in different places.",
  "data": [
    {"smiles": "Cc1nccn1CC1CCc2c(c3ccccc3n2C)C1=O", "note": "(stereo not shown) [ond, ondansetron]", "values": [
      {"measurement": "peak hNav1.5 Na+ current inhibition (result in words)", "setting": "peak hNav1.5; no inhibition = no obvious concentration-dependent current block and/or no curve fitting performed, all sites", "value": "no inhibition"},
      {"measurement": "log IC50, peak hNav1.5 Na+ current inhibition", "setting": "peak hNav1.5; site_platform s01_p1", "value": "no inh."},
      {"measurement": "Peak hNav1.5 Na+ current inhibition, Mean", "setting": "peak hNav1.5; site_platform s01_p1, 1.00E-05 mol/L", "value": 56.4, "unit": "%"},
      {"measurement": "Peak hNav1.5 Na+ current inhibition, Mean", "setting": "peak hNav1.5; site_platform s01_p1, 3.00E-07 mol/L", "value": 31.6, "unit": "%"},
      {"measurement": "log IC50, peak hNav1.5 Na+ current inhibition", "setting": "peak hNav1.5; site_platform s02_p2", "value": "no inh."},
      {"measurement": "Peak hNav1.5 Na+ current inhibition, Mean", "setting": "peak hNav1.5; site_platform s02_p2, 1.00E-05 mol/L", "value": 9.4, "unit": "%"},
      {"measurement": "Peak hNav1.5 Na+ current inhibition, Mean", "setting": "peak hNav1.5; site_platform s02_p2, 3.00E-07 mol/L", "value": 1.4, "unit": "%"},
      {"measurement": "log IC50, peak hNav1.5 Na+ current inhibition", "setting": "peak hNav1.5; site_platform s04_p3", "value": "no inh."},
      {"measurement": "Peak hNav1.5 Na+ current inhibition, Mean", "setting": "peak hNav1.5; site_platform s04_p3, 1.00E-05 mol/L", "value": 19.5, "unit": "%"},
      {"measurement": "Peak hNav1.5 Na+ current inhibition, Mean", "setting": "peak hNav1.5; site_platform s04_p3, 3.00E-07 mol/L", "value": 4.4, "unit": "%"},
      {"measurement": "log IC50, peak hNav1.5 Na+ current inhibition", "setting": "peak hNav1.5; site_platform s06_p4", "value": "no inh."},
      {"measurement": "Peak hNav1.5 Na+ current inhibition, Mean", "setting": "peak hNav1.5; [2]", "value": 19.0, "unit": "%"},
      {"measurement": "Peak hNav1.5 Na+ current inhibition, Mean", "setting": "peak hNav1.5; [3]", "value": 0.4, "unit": "%"},
      {"measurement": "log IC50, peak hNav1.5 Na+ current inhibition", "setting": "peak hNav1.5; site_platform s07_p6", "value": "no inh."},
      {"measurement": "Peak hNav1.5 Na+ current inhibition, Mean", "setting": "peak hNav1.5; [4]", "value": 17.1, "unit": "%"},
      {"measurement": "Peak hNav1.5 Na+ current inhibition, Mean", "setting": "peak hNav1.5; [5]", "value": 1.7, "unit": "%"},
      {"measurement": "log IC50, peak hNav1.5 inhibition", "setting": "peak hNav1.5; site_platform s10_p3", "value": "no inh."},
      {"measurement": "Peak hNav1.5 Na+ current inhibition, Mean", "setting": "peak hNav1.5; site_platform s10_p3, 1.00E-05 mol/L", "value": 20.6, "unit": "%"},
      {"measurement": "Peak hNav1.5 Na+ current inhibition, Mean", "setting": "peak hNav1.5; site_platform s10_p3, 3.00E-07 mol/L", "value": 0.1, "unit": "%"},
      {"measurement": "log IC50, peak hNav1.5 inhibition", "setting": "peak hNav1.5; site_platform s11_p1", "value": "no inh."},
      {"measurement": "Peak hNav1.5 Na+ current inhibition, Mean", "setting": "peak hNav1.5; site_platform s11_p1, 1.00E-05 mol/L", "value": 15.2, "unit": "%"},
      {"measurement": "Peak hNav1.5 Na+ current inhibition, Mean", "setting": "peak hNav1.5; site_platform s11_p1, 3.00E-07 mol/L", "value": 6.1, "unit": "%"},
      {"measurement": "log IC50, peak hNav1.5 inhibition", "setting": "peak hNav1.5; site_platform s12_p2", "value": "no inh."},
      {"measurement": "Peak hNav1.5 Na+ current inhibition, Mean", "setting": "peak hNav1.5; site_platform s12_p2, 1.00E-05 mol/L", "value": 12.2, "unit": "%"},
      {"measurement": "Peak hNav1.5 Na+ current inhibition, Mean", "setting": "peak hNav1.5; site_platform s12_p2, 3.00E-07 mol/L", "value": 3.0, "unit": "%"},
      {"measurement": "log IC50, peak hNav1.5 inhibition", "setting": "peak hNav1.5; site_platform s13_p2", "value": "no inh."},
      {"measurement": "Peak hNav1.5 Na+ current inhibition, Mean", "setting": "peak hNav1.5; [6]", "value": 7.0, "unit": "%"},
      {"measurement": "Peak hNav1.5 Na+ current inhibition, Mean", "setting": "peak hNav1.5; [7]", "value": -3.4, "unit": "%"},
      {"measurement": "log IC50, peak hNav1.5 inhibition", "setting": "peak hNav1.5; site_platform s14_p1", "value": "no inh."},
      {"measurement": "Peak hNav1.5 Na+ current inhibition, Mean", "setting": "peak hNav1.5; [8]", "value": 21.3, "unit": "%"},
      {"measurement": "Peak hNav1.5 Na+ current inhibition, Mean", "setting": "peak hNav1.5; [9]", "value": 3.9, "unit": "%"},
      {"measurement": "log IC50, peak hNav1.5 inhibition", "setting": "peak hNav1.5; site_platform s15_p1", "value": "no inh."},
      {"measurement": "Peak hNav1.5 Na+ current inhibition, Mean", "setting": "peak hNav1.5; site_platform s15_p1, 1.00E-05 mol/L", "value": 43.9, "unit": "%"},
      {"measurement": "Peak hNav1.5 Na+ current inhibition, Mean", "setting": "peak hNav1.5; site_platform s15_p1, 3.00E-07 mol/L", "value": 11.8, "unit": "%"},
      {"measurement": "log IC50, peak hNav1.5 inhibition", "setting": "peak hNav1.5; site_platform s16_p3", "value": "no inh."},
      {"measurement": "Peak hNav1.5 Na+ current inhibition, Mean", "setting": "peak hNav1.5; site_platform s16_p3, 1.00E-05 mol/L", "value": 14.4, "unit": "%"},
      {"measurement": "Peak hNav1.5 Na+ current inhibition, Mean", "setting": "peak hNav1.5; site_platform s16_p3, 3.00E-07 mol/L", "value": 2.8, "unit": "%"},
      {"measurement": "log IC50, peak hNav1.5 inhibition", "setting": "peak hNav1.5; site_platform s17_p1", "value": "no inh."},
      {"measurement": "Peak hNav1.5 Na+ current inhibition, Mean", "setting": "peak hNav1.5; site_platform s17_p1, 1.00E-05 mol/L", "value": 33.4, "unit": "%"},
      {"measurement": "Peak hNav1.5 Na+ current inhibition, Mean", "setting": "peak hNav1.5; site_platform s17_p1, 3.00E-07 mol/L", "value": -17.0, "unit": "%"},
      {"measurement": "log IC50, peak hNav1.5 inhibition", "setting": "peak hNav1.5; site_platform s18_p1", "value": "no inh."},
      {"measurement": "Peak hNav1.5 Na+ current inhibition, Mean", "setting": "peak hNav1.5; site_platform s18_p1, 1.00E-05 mol/L", "value": 29.7, "unit": "%"},
      {"measurement": "Peak hNav1.5 Na+ current inhibition, Mean", "setting": "peak hNav1.5; site_platform s18_p1, 3.00E-07 mol/L", "value": 27.5, "unit": "%"},
      {"measurement": "log IC50, peak hNav1.5 inhibition", "setting": "peak hNav1.5; site_platform s19_p3", "value": "no inh."},
      {"measurement": "Peak hNav1.5 Na+ current inhibition, Mean", "setting": "peak hNav1.5; site_platform s19_p3, 1.00E-05 mol/L", "value": 24.0, "unit": "%"},
      {"measurement": "Peak hNav1.5 Na+ current inhibition, Mean", "setting": "peak hNav1.5; site_platform s19_p3, 3.00E-07 mol/L", "value": 3.5, "unit": "%"},
      {"measurement": "nH, Hill slope, late hNav1.5 inhibition", "setting": "late hNav1.5; site_platform s06_p4", "value": 1.28},
      {"measurement": "Late hNav1.5 Na+ current inhibition, Mean", "setting": "late hNav1.5; [2]", "value": 61.7, "unit": "%"},
      {"measurement": "Late hNav1.5 Na+ current inhibition, Mean", "setting": "late hNav1.5; [3]", "value": 0.5, "unit": "%"},
      {"measurement": "IC50", "setting": "late hNav1.5; site_platform s06_p4", "value": 6.92, "unit": "µM"},
      {"measurement": "nH, Hill slope, late hNav1.5 inhibition", "setting": "late hNav1.5; site_platform s07_p6", "value": 1.57},
      {"measurement": "Late hNav1.5 Na+ current inhibition, Mean", "setting": "late hNav1.5; [4]", "value": 47.6, "unit": "%"},
      {"measurement": "Late hNav1.5 Na+ current inhibition, Mean", "setting": "late hNav1.5; [5]", "value": -14.8, "unit": "%"},
      {"measurement": "IC50", "setting": "late hNav1.5; site_platform s07_p6", "value": 10.2, "unit": "µM"},
      {"measurement": "log IC50, late hNav1.5 inhibition", "setting": "late hNav1.5; site_platform s13_p2", "value": "no inh."},
      {"measurement": "Late hNav1.5 Na+ current inhibition, Mean", "setting": "late hNav1.5; [6]", "value": 20.9, "unit": "%"},
      {"measurement": "Late hNav1.5 Na+ current inhibition, Mean", "setting": "late hNav1.5; [7]", "value": 9.2, "unit": "%"},
      {"measurement": "log IC50, late hNav1.5 inhibition", "setting": "late hNav1.5; site_platform s14_p1", "value": "no inh."},
      {"measurement": "Late hNav1.5 Na+ current inhibition, Mean", "setting": "late hNav1.5; [8]", "value": 40.9, "unit": "%"},
      {"measurement": "Late hNav1.5 Na+ current inhibition, Mean", "setting": "late hNav1.5; [9]", "value": 20.2, "unit": "%"},
      {"measurement": "TdP Risk Category", "setting": "[1]", "value": "Intermediate"},
      {"measurement": "IC50", "setting": "hCav1.2; site s04_p3", "value": 155, "unit": "µM"},
      {"measurement": "IC50", "setting": "hCav1.2; site s14_p1", "value": 28.8, "unit": "µM"},
      {"measurement": "IC50", "setting": "hCav1.2; site s16_p3", "value": 6.61, "unit": "µM"}
    ]}
  ]
}
